Patent US20070270436A1, “NOVEL AMINO- AND IMINO-ALKYLPIPERAZINES” (Recordati Ireland Limited, priority 2006, published 2007)

Key:
[1] = biological target: T1, human 5HT1A-serotonergic receptor (Homo sapiens, UniProt P08908); test: Radioligand binding to recombinant 5-HT1A receptor ([3H]8-OH-DPAT, HeLa cell membranes); conditions: 1 nM [3H]8-OH-DPAT; Ki from IC50 by the Cheng equation; read-out: Ki (nM), binding affinity for 5HT1A receptor
T1 construct: expressed in transfected cells; host or cells: HeLa (human), stably transfected; membranes
T1 sequence (P08908 1-422): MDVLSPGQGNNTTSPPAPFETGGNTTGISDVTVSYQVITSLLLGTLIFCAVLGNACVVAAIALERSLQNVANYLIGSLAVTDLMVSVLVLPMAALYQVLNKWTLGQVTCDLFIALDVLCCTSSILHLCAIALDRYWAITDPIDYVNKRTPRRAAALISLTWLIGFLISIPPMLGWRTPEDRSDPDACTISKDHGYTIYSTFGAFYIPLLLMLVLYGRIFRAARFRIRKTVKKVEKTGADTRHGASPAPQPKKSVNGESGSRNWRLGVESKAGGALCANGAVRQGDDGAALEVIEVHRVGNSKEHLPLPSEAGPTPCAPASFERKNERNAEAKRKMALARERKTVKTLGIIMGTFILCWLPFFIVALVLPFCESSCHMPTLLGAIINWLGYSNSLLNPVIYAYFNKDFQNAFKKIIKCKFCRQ
Outline: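 Membranes from HeLa cells stably expressing human 5-HT1A incubated 30 min at 30 °C with 1 nM [3H]8-OH-DPAT in 50 mM Tris pH 7.4, 2.5 mM MgCl2, 10 μM pargyline; non-specific binding with 10 μM 5-HT. Filtration read-out; IC50 by curve fitting, converted to Ki via Cheng-Prusoff.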

[2] = system: rhythmic bladder-voiding contractions; test: Rhythmic bladder-voiding contractions induced by bladder filling in anaesthetised rats; type: in vivo, rat; conditions: intravenous administration
Description: Female Sprague-Dawley rats weighing 225-275 g (Crl: CD® (SD) IGS BR, Charles River Italia) were used. The animals were housed with free access to food and water and maintained on a forced 12-hour alternating light-dark cycle at 22-24° C. for at least one week, except during the experiment. The activity on rhythmic bladder voiding contractions was evaluated according to the method of Dray (Dray J., Pharmacol. Methods, 13:157, 1985), with some modifications as in Guarneri (Guarneri, Pharmacol. Res. 27:173, 1993). Briefly, the rats were anaesthetised by subcutaneous injection of 1.25 g/kg (5 ml/kg) urethane, after which the urinary bladder was catheterised via the urethra using PE 50 polyethylene tubing filled with physiological saline. The catheter was tied in place with a ligature around the external urethral orifice and was connected to conventional pressure transducers (Statham P23 ID/P23 XL). […] The bladder was then filled via the recording catheter by incremental volumes of warm (37° C.) saline until reflex bladder-voiding contractions occurred (usually 0.8-1.5 ml). For intravenous injection of bioactive compounds, PE 50 polyethylene tubing filled with physiological saline was inserted into the jugular vein.
From the cystometrogram, the number of contractions recorded 15 minutes before (basal values) and after treatment, as well as the mean amplitude of these contractions (mean height of the peaks in mmHg), was evaluated.
Since most compounds produced an effect that was relatively rapid in onset and led to a complete cessation of bladder contractions, bioactivity was conveniently estimated by measuring the duration of bladder quiescence (i.e., the time during which no contractions occurred). The number of tested animals showing a reduction in the number of contractions higher than 30% of that observed in the basal period was recorded too.
The extrapolated doses which induced a reduction in the number of contractions greater than 30% in 50% of the treated rats (ED50) were also evaluated by the method of Bliss (Bliss C. I., Quart J. Pharm. Pharmacol. 11, 192-216, 1938).

Ki [1] [nM] | Structure (SMILES) | ED50 (frequency) (extrapolated dose inducing a reduction of the number of contractions >30% in 50% of treated rats) [2] [mg/kg] | ED10 min (extrapolated dose inducing 10 minutes of disappearance of the contractions) [2] [mg/kg]
0.86 | COc1ccccc1N1CCN(CCC(c2ccccc2F)C(C2CCCCC2)N(C)C(C)=O)CC1 (racemic) [Example 16, (RS,SR)- and (RS,RS)-N-{-1-Cyclohexyl-2-(2-fluorophenyl)-4-[4-(2-methoxyphenyl)piperazin-1-yl]butyl}-N-methylacetamide] | 0.031 | 0.072
1.23 | COc1ccccc1N1CCN(CC[C@@H](c2ccccc2F)[C@H](NC(=S)N(C)C)C2CCCCC2)CC1 (racemic) [Example 24, 3-{(RS,SR)-1-Cyclohexyl-2-(2-fluorophenyl)-4-[4-(2-methoxyphenyl)-piperazin-1-yl]butyl}-1,1-dimethylthiourea] | – | –
